Values of other authors in US20220347157A1, “SUSTAINED RELEASE PHARMACEUTICAL COMPOSITIONS COMPRISING (1R, 5S)-1-(NAPHTHALEN-2-YL)-3-AZABICYCLO[3.1.0]HEXANE” (OTSUKA AMERICA PHARMACEUTICAL, INC., priority 2013, published 2022).

Key:
[1] = biological target: serotonin reuptake (5-HT) (Homo sapiens, UniProt P31645); details: fraction of the potency towards norepinephrine reuptake
dopamine reuptake (DA) = dopamine reuptake (DA) (Homo sapiens, UniProt Q01959); details: fraction of the potency towards norepinephrine reuptake
dopamine reuptake (DA), sequence (Q01959 whole entry): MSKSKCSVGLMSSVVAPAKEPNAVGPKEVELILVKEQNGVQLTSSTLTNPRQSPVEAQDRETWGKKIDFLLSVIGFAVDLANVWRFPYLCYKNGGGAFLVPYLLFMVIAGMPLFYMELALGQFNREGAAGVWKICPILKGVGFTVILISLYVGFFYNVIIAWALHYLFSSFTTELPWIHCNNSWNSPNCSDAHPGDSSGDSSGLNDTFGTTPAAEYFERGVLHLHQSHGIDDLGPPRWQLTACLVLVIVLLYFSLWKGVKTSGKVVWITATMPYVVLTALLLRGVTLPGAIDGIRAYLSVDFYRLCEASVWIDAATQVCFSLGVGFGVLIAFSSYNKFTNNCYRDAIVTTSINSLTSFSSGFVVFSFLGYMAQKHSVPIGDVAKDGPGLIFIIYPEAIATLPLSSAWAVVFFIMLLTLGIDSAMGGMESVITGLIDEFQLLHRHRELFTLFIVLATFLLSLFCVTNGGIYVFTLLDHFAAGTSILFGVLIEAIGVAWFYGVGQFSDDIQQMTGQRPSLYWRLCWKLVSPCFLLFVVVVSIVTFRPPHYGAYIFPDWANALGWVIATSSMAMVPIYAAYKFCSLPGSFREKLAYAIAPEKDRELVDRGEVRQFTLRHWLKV

serotonin reuptake (5-HT), sequence (P31645 whole entry): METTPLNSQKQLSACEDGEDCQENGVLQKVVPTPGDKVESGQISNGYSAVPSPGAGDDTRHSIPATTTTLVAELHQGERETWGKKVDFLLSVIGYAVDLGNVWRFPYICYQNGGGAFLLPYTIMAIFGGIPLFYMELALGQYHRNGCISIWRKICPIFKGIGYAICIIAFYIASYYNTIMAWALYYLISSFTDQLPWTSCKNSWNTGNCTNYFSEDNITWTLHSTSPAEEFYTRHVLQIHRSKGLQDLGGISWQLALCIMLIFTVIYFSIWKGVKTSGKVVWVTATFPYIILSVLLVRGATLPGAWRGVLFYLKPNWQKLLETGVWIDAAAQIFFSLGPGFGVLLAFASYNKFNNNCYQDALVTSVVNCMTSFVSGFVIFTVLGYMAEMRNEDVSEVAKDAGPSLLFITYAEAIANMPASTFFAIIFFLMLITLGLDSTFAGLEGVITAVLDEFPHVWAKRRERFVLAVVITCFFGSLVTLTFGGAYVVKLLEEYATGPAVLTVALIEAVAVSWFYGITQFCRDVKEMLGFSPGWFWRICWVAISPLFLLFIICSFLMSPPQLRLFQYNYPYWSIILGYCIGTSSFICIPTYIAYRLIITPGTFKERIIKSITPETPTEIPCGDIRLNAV

Compound: c1ccc2cc([C@]34CNC[C@H]3C4)ccc2c1 [(1R,5S)-1-(naphthalen-2-yl)-3-azabicyclo[3.1.0]hexane]
- potency towards serotonin reuptake (5-HT) relative to norepinephrine reuptake (NE) [1]: one-fourteenth as much
- potency towards dopamine reuptake (DA) relative to norepinephrine reuptake (NE) (dopamine reuptake (DA)): one-sixth as much
